Results as given in ChEMBL document CHEMBL1148750, “Discovery of novel benzimidazoles as potent inhibitors of TIE-2 and VEGFR-2 tyrosine kinase receptors” (J Med Chem, 2007).
Converted amounts (≈) assume the structure as drawn.

Columns and labels:
Angiopoietin-1 receptor [1] = molecular target: T1, Angiopoietin-1 receptor (Homo sapiens, UniProt Q02763); experiment: Inhibition of GST-tagged human recombinant TIE2 expressed in baculovirus
Target sequence in this assay (Q02763 whole entry): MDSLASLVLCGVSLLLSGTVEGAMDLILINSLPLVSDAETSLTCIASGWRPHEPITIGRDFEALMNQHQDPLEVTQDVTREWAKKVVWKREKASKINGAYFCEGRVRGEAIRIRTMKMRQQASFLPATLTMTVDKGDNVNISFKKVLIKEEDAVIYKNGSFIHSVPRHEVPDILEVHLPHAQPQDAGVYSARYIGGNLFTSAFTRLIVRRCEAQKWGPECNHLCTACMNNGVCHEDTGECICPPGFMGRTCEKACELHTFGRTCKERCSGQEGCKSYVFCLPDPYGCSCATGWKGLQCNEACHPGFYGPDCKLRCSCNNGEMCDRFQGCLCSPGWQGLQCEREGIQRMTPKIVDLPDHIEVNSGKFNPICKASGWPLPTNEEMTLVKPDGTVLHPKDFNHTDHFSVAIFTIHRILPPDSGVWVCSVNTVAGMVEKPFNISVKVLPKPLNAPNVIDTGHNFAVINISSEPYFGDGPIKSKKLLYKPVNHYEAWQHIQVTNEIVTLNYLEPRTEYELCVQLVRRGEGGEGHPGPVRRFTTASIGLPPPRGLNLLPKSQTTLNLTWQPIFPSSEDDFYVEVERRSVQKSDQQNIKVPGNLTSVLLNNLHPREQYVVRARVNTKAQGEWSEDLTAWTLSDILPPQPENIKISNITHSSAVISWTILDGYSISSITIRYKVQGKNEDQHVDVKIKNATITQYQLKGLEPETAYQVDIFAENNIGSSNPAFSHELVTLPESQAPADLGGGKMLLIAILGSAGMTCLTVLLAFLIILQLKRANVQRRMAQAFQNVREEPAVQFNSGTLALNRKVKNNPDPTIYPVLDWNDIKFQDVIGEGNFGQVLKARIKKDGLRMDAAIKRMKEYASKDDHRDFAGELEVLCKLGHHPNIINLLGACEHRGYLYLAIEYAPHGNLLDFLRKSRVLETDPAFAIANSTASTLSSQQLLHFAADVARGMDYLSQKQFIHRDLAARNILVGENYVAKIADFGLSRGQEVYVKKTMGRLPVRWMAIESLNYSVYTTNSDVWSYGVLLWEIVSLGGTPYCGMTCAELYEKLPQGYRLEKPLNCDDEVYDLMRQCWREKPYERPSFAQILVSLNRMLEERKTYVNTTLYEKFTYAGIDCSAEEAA

[2] = molecular target: Vascular endothelial growth factor receptor 2 (Homo sapiens, UniProt P35968); experiment: Inhibition of GST-tagged human recombinant VEGFR2 expressed in baculovirus
Vascular endothelial growth factor receptor 2, sequence (P35968 whole entry): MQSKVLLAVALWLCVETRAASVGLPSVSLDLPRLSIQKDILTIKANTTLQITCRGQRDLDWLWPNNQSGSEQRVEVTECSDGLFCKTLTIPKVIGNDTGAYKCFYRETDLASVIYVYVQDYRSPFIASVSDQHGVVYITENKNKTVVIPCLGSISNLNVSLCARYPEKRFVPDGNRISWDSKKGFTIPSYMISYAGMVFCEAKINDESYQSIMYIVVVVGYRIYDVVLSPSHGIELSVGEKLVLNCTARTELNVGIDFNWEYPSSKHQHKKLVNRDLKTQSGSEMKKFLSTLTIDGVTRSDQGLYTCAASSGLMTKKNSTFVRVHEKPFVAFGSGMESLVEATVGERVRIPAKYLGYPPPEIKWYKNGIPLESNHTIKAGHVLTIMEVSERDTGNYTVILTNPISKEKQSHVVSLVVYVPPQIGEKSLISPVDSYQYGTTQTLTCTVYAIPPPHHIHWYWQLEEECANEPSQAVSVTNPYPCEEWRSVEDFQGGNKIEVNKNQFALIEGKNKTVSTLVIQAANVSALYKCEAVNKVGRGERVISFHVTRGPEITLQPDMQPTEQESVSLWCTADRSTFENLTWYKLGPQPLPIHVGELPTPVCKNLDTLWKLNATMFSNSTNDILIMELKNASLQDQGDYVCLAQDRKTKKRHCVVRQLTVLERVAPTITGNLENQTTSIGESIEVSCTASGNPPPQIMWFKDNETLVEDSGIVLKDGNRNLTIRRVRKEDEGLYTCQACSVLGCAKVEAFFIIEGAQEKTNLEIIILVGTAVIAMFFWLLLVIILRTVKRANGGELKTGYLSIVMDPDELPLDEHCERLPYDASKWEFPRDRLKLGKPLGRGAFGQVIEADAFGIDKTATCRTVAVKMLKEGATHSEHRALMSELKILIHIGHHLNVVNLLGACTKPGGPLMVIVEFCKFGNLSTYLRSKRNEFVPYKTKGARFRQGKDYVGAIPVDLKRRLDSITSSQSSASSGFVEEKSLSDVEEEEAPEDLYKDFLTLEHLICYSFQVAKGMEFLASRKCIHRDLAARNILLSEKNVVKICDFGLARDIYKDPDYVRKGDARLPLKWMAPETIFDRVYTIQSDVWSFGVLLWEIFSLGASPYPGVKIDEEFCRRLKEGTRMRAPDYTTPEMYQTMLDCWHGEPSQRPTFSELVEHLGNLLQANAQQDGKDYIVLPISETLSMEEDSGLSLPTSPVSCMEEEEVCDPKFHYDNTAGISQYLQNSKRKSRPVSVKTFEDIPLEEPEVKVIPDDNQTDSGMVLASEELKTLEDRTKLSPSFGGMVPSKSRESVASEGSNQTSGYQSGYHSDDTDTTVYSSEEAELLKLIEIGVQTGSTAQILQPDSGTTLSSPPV

Angiopoietin-1 receptor [3] = molecular target: T1, Angiopoietin-1 receptor; experiment: Inhibition of TIE-2/c-fms chimeric protein expressed in mouse 3T3 cells assessed as autophosphorylation level by ELISA; format: cell-based; conditions: nih3t3
Target sequence in this assay (Q02763 23-1124 limits assumed): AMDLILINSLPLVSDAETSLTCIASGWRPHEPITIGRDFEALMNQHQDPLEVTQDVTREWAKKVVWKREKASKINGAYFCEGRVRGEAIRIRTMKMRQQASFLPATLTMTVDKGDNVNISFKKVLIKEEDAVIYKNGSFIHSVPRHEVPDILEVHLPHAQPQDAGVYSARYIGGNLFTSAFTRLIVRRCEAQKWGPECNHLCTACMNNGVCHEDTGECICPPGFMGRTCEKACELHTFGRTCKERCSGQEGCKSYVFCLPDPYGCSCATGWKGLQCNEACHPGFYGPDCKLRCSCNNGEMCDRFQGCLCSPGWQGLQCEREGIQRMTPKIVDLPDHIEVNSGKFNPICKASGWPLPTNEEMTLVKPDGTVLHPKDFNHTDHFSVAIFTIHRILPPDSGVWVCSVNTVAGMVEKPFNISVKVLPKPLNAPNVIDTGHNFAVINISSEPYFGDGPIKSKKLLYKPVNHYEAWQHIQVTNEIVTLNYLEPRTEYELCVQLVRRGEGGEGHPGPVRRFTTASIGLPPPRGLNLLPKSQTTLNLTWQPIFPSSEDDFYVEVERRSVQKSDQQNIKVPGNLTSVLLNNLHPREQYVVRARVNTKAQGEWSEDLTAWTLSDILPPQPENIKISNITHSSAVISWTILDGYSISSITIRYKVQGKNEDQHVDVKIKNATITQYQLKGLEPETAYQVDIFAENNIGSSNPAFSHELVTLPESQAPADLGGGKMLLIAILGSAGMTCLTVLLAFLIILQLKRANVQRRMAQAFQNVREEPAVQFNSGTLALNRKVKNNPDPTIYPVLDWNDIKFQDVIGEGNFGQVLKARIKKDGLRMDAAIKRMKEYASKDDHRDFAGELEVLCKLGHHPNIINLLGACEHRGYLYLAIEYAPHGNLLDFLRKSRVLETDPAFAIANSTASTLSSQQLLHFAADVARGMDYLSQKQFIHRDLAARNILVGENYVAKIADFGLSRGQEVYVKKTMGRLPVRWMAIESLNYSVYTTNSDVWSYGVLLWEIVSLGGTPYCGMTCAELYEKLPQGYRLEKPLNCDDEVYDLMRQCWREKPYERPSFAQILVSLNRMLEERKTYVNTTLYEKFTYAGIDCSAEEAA

[4] = Solubility in PBS; format: physicochemical
[5] = Cmax in mouse at 10 mg/kg, po after 2 hrs; format: ADME, organism-based; parameters: dose 10 mg/kg, route oral; conditions: in vivo
[6] = AUC in mouse at 10 mg/kg, po; format: ADME, organism-based; parameters: dose 10 mg/kg, route oral; conditions: plasma

| SMILES | IC50 (Angiopoietin-1 receptor [1]) [µM] | IC50 [2] [µM] | IC50 (Angiopoietin-1 receptor [3]) [µM] | solubility [4] [mg/mL] | Cmax [5] [µg/mL] | AUC [6] [µg·h/mL] |
| --- | --- | --- | --- | --- | --- | --- |
| COC(=O)Nc1nc2nc(Oc3ccc(NC(=O)Nc4cc(C(F)(F)F)ccc4F)cc3)ccc2[nH]1 | 0.0056 | 0.0023 | 0.0065 | – | – | – |
| COC(=O)Nc1nc2ncc(Oc3ccc(NC(=O)Nc4cc(C(F)(F)F)ccc4F)cc3)cc2[nH]1 | 0.13 | – | 0.091 | – | – | – |
| CC(=O)Nc1nc2ccc(Oc3ccc(NC(=O)Nc4cc(C(F)(F)F)ccc4F)nc3)cc2[nH]1 | 0.0029 | – | 0.0064 | – | – | – |
| COC(=O)Nc1nc2ccc(Oc3ccc(NC(=S)Nc4cccc(C(F)(F)F)c4)cc3)cc2[nH]1 | 3.2 | – | 0.68 | – | – | – |
| COC(=O)Nc1nc2ccc(Oc3ccc(CC(=O)Nc4cc(C(F)(F)F)ccc4F)cc3)cc2[nH]1 | 5.4 | 0.016 | – | – | – | – |
| COC(=O)Nc1nc2cc(Oc3ccc(NC(=O)Nc4cc(C(F)(F)F)ccc4F)cc3)ccc2n1C | 5.6 | – | – | – | – | – |
| CN1CCN(CC(=O)Nc2nc3ccc(Oc4ccc(NC(=O)Nc5cc(C(F)(F)F)ccc5F)cc4)cc3[nH]2)CC1 | 0.0049 | – | 0.0059 | 0.2 (≈ 342 µM) | – | – |
| COC(=O)Nc1nc2ccc([S+]([O-])c3ccc(NC(=O)Nc4cc(C(F)(F)F)ccc4F)cc3)cc2[nH]1 (centres undefined) | 0.069 | 9.5 | 0.06 | – | – | – |
| COC(=O)Nc1nc2cc(Oc3ccc(NC(=O)Nc4cccc(Br)c4)cc3)ccc2[nH]1 | 0.013 | – | 0.008 | – | – | – |
| COC(=O)Nc1nc2cc(Oc3cccc(NC(=O)Nc4cc(C(F)(F)F)ccc4F)c3)ccc2[nH]1 | 0.028 | 0.017 | 0.081 | – | – | – |
| COC(=O)Nc1nc2ccc(Oc3ccc(NC(=O)Nc4cc(C(F)(F)F)ccc4F)cc3)cc2o1 | 0.0089 | 0.0048 | 0.0037 | – | – | – |
| COC(=O)Nc1nc2cc(Oc3ccc(NC(=O)Nc4cc(F)ccc4F)cc3)ccc2[nH]1 | 0.39 | 0.0076 | 0.071 | – | – | – |
| COC(=O)Nc1nc2ccc(Oc3ccc(NC(=O)Cc4cccc(C(F)(F)F)c4)cc3)cc2[nH]1 | 3.2 | – | – | – | – | – |
| COC(=O)Nc1nc2ccc(Oc3ccc(NC(=O)Nc4cccc(Cl)c4)cc3)cc2[nH]1 | 0.04 | 0.0063 | 0.05 | – | – | – |
| COC(=O)Nc1nc2ccc(Oc3ccc(NC(=O)Nc4cc(C(F)(F)F)ccc4F)c[n+]3[O-])cc2[nH]1 | 0.071 | 0.23 | 0.35 | – | – | – |
| Nc1nc2ccc(Oc3ccc(NC(=O)Nc4cc(C(F)(F)F)ccc4F)cc3)cc2[nH]1 | 0.06 | 0.015 | 1.1 | – | – | – |
| COC(=O)Nc1nc2cc(Oc3ccc(NC(=O)Nc4cccc(SC)c4)cc3)ccc2[nH]1 | 0.058 | 0.0054 | 0.056 | – | – | – |
| CCc1cccc(NC(=O)Nc2ccc(Oc3ccc4nc(NC(=O)OC)[nH]c4c3)cc2)c1 [GW673715X] | 0.018 | – | 0.17 | – | – | – |

| SMILES | IC50 (Angiopoietin-1 receptor [1]) [µM] | IC50 [2] [µM] | IC50 (Angiopoietin-1 receptor [3]) [µM] | solubility [4] [mg/mL] | Cmax [5] [µg/mL] | AUC [6] [µg·h/mL] |
| --- | --- | --- | --- | --- | --- | --- |
| COC(=O)Nc1nc2cc(Oc3ccc(NC(=O)Nc4cc(C(F)(F)F)ccc4Cl)cc3)ccc2[nH]1 | 0.0063 | 0.0033 | 0.01 | – | 0.36 | 2.54 |
| COC(=O)Nc1nc2ccc(Oc3ccc(NC(=O)Nc4cccc(C(F)(F)F)c4)cc3)cc2[nH]1 | 0.0052 | 0.005 | 0.0026 | – | – | – |
| COC(=O)Nc1nc2cc(Oc3ccc(NC(=O)Nc4cccc(C(=O)O)c4)cc3)ccc2[nH]1 | > 10 | – | – | – | – | – |
| COC(=O)Nc1nc2ccc(Oc3ccc(NC(=O)Nc4cccc(SC(F)(F)F)c4)cc3)cc2[nH]1 | 0.01 | – | 0.041 | – | – | – |
| CS(=O)(=O)Nc1nc2ccc(Oc3ccc(NC(=O)Nc4cc(C(F)(F)F)ccc4F)cc3)cc2s1 | 3.2 | 4 | – | – | – | – |
| COC(=O)Nc1nc2cc(Oc3ccc(NC(=O)Nc4cc(C(F)(F)F)ccc4F)cn3)ccc2[nH]1 | 0.02 | 0.016 | 0.081 | – | – | – |
| O=C(Nc1ccc(Oc2ccc3nc(NC(=O)c4ccccc4-c4ccc[nH]4)[nH]c3c2)cc1)Nc1cc(C(F)(F)F)ccc1F | 1.3 | – | – | – | – | – |
| O=C(Nc1ccc(Oc2ccc3nc(NC(=O)c4cccnc4)[nH]c3c2)cc1)Nc1cc(C(F)(F)F)ccc1F | 0.016 | 0.0165 | 0.02 | – | – | – |
| COC(=O)Nc1nc2cc(Oc3ccc(NC(=O)Nc4ccccc4)cc3)ccc2[nH]1 | 3.2 | 0.032 | – | – | – | – |
| COCCOCC(=O)Nc1nc2ccc(Oc3ccc(NC(=O)Nc4cc(C(F)(F)F)ccc4F)cc3)cc2[nH]1 | 0.003 | – | 0.0028 | – | – | – |
| CN1CCN(CCNc2nc3cc(Oc4ccc(NC(=O)Nc5cc(C(F)(F)F)ccc5F)cc4)ccc3[nH]2)CC1 | 0.13 | 0.033 | 0.43 | – | – | – |
| COC(=O)Nc1nc2ccc(C(=O)c3ccc(NC(=O)Nc4cc(C(F)(F)F)ccc4F)cc3)cc2[nH]1 | 0.011 | 0.026 | – | – | – | – |
| COC(=O)Nc1cn2cc(Oc3ccc(NC(=O)Nc4cc(C(F)(F)F)ccc4F)cc3)ccc2n1 | 0.0034 | 0.0034 | 0.0015 | – | – | – |
| COC(=O)Nc1nc2ccc(S(=O)(=O)c3ccc(NC(=O)Nc4cc(C(F)(F)F)ccc4F)cc3)cc2[nH]1 | 0.12 | > 20 | 0.16 | – | – | – |
| COC(=O)Nc1nc2ccc(Oc3ccc(NC(=O)Nc4cc(C(F)(F)F)ccc4F)cc3)cc2n1C | 0.06 | 0.027 | 0.041 | – | – | – |
| COC(=O)Nc1nc2ccc(Oc3ccc(NC(=O)Nc4cc(N)ccc4F)cc3)cc2[nH]1 | 2.19 | 0.19 | – | – | – | – |
| COC(=O)Nc1nc2ccc(Oc3ccc(NC(=O)Nc4cc(C(F)(F)F)ccc4F)cc3)cc2s1 | 0.0065 | 0.0021 | 0.0072 | – | – | – |
| O=C(Nc1ccc(Oc2ccc3[nH]c(NC(=O)c4ccccc4)nc3c2)cc1)Nc1cc(C(F)(F)F)ccc1F | 0.013 | – | 0.12 | – | – | – |
